Patent US20110076261A1, “Antifungal Drug Delivery System” (priority 2007, published 2011)
Read-outs that look alike come from different tables or passages of the source. Each block holds one molecule with its values, some of them ahead of it.

Experiments:
[1] = at 25° C.; cited from earlier work
[2] = cited from earlier work
[3] = From the text: Accordingly, when looking at a particular acid, the percent of ionization of that acid can be determined by the following formula: […]

Structure (SMILES): NC(N)=O [Urea]
pKa [1]: 0.10

percent ionized ([3]; in water, pH 2.2): approximately 9%
pH−pKa value ([3]; pH 2.2): −0.77
pH−pKa value ([3]; pH 5): 2.03
percent ionized ([3]; pH raised to 5): approximately 99%
Structure (SMILES): O=C(O)c1ccccc1O [Salicylic, salicylic acid]
normal pH in water [2]: 2.2

Structure (SMILES): O=C(O)C(O)c1ccccc1 (centres unmarked) [Mandelic, mandelic acid]
pKa [1]: 3.85

Structure (SMILES): O=C[C@H](O)[C@@H](O)[C@H](O)[C@H](O)C(=O)O [Glucoronic, glucuronic acid]
pKa [1]: 3.28
